From article PMC10688820 (Microbiome Research Reports, 2023) come the findings set out here.

Read-outs that look alike come from different tables or passages of the source.

In assay [1] the target is T1, BiBga42A (Bifidobacterium longum, UniProt Z9E2X9H8H4, A160E/A318E, form not given).
T1 construct: C-terminal hexahistidine tag, pET23b, expressed in E. coli BL21 (DE3) ΔlacZ; GH42; homotrimer, active site completed by W200 and F221 of neighbouring subunit
The assay can be described thus: coupled colorimetric Gal release assay (Thio-NADH, […] nm). Type of assay: biochemical. To be noted: 100 mM citrate-phosphate pH 6.5, 37 °C, 12.5 mM MgCl2 (coupling mix).

Assay [2] has as its target T2, BiBga42A (Bifidobacterium longum, UniProt Z9E2X9H8H4, R121A/A160E/A318E, form not given).
T2 construct: C-terminal hexahistidine tag, pET23b, expressed in E. coli BL21 (DE3) ΔlacZ; GH42; homotrimer, active site completed by W200 and F221 of neighbouring subunit
The assay is described as above. In kind it is biochemical. To be noted: 100 mM citrate-phosphate pH 6.5, 37 °C, 12.5 mM MgCl2 (coupling mix).

The target of assay [3] is T3, BiBga42A (Bifidobacterium longum, UniProt Z9E2X9H8H4, A160E/M262G/A318E, form not given).
T3 construct: C-terminal hexahistidine tag, pET23b, expressed in E. coli BL21 (DE3) ΔlacZ; GH42; homotrimer, active site completed by W200 and F221 of neighbouring subunit
The assay is described as above. In kind it is biochemical. The settings on record: 100 mM citrate-phosphate pH 6.5, 37 °C, 12.5 mM MgCl2 (coupling mix); read-out: LNT.

Assay [4] has as its target T4, BiBga42A (Bifidobacterium longum, UniProt Z9E2X9H8H4, A160E/A318E/W326A, form not given).
T4 construct: C-terminal hexahistidine tag, pET23b, expressed in E. coli BL21 (DE3) ΔlacZ; GH42; homotrimer, active site completed by W200 and F221 of neighbouring subunit
Described as above. In kind it is biochemical. To be noted: 100 mM citrate-phosphate pH 6.5, 37 °C, 12.5 mM MgCl2 (coupling mix).

In assay [5] the target is T5, BiBga42A (Bifidobacterium longum, UniProt Z9E2X9H8H4, A160E/F221A/A318E, form not given).
T5 construct: C-terminal hexahistidine tag, pET23b, expressed in E. coli BL21 (DE3) ΔlacZ; GH42; homotrimer, active site completed by W200 and F221 of neighbouring subunit
The assay is described as above. In kind it is biochemical. The settings on record: 100 mM citrate-phosphate pH 6.5, 37 °C, 12.5 mM MgCl2 (coupling mix); read-out: LNT.

Assay [6] deals with T6, BiBga42A (Bifidobacterium longum, UniProt Z9E2X9H8H4, A160E/A318E/R327A, form not given).
T6 construct: C-terminal hexahistidine tag, pET23b, expressed in E. coli BL21 (DE3) ΔlacZ; GH42; homotrimer, active site completed by W200 and F221 of neighbouring subunit
The assay is described as above. Type of assay: biochemical. To be noted: 100 mM citrate-phosphate pH 6.5, 37 °C, 12.5 mM MgCl2 (coupling mix); read-out: LNT.

Assay [7] deals with T7, BiBga42A (Bifidobacterium longum, UniProt Z9E2X9H8H4, A160E/A318S, form not given).
T7 construct: C-terminal hexahistidine tag, pET23b, expressed in E. coli BL21 (DE3) ΔlacZ; GH42; homotrimer, active site completed by W200 and F221 of neighbouring subunit
The assay can be described thus: X-ray co-crystal structure, […] Å. In kind it is binding. The settings on record: co-crystallised with 100 mM LNT, pH 5.8; subsites -1 to +3.

Assay [8] deals with T8, BiBga42A (Bifidobacterium longum, UniProt Z9E2X9H8H4, A160E/Y287F/A318E, form not given).
T8 construct: C-terminal hexahistidine tag, pET23b, expressed in E. coli BL21 (DE3) ΔlacZ; GH42; homotrimer, active site completed by W200 and F221 of neighbouring subunit
The assay can be described thus: coupled colorimetric Gal release assay (Thio-NADH, […] nm). In kind it is biochemical. The settings on record: 100 mM citrate-phosphate pH 6.5, 37 °C, 12.5 mM MgCl2 (coupling mix); read-out: LNT.

For assay [9], the target named is T9, BiBga42A (Bifidobacterium longum, UniProt Z9E2X9H8H4, A160E, form not given).
T9 construct: C-terminal hexahistidine tag, pET23b, expressed in E. coli BL21 (DE3) ΔlacZ; GH42; homotrimer, active site completed by W200 and F221 of neighbouring subunit
Described as above. In kind it is biochemical. To be noted: 100 mM citrate-phosphate pH 6.5, 37 °C, 12.5 mM MgCl2 (coupling mix); read-out: pNP-Gal.

Assay [10] has as its target T10, BiBga42A (Bifidobacterium longum, UniProt Z9E2X9H8H4, A318E, form not given).
T10 construct: C-terminal hexahistidine tag, pET23b, expressed in E. coli BL21 (DE3) ΔlacZ; GH42; homotrimer, active site completed by W200 and F221 of neighbouring subunit
The description is as above. In kind it is biochemical. To be noted: 100 mM citrate-phosphate pH 6.5, 37 °C, 12.5 mM MgCl2 (coupling mix); read-out: pNP-Gal.

In assay [11] the target is BiBga42A E160A/E318A double mutant (Bifidobacterium longum subsp. infantis ATCC 15697). Description: crystal structure; hanging drop vapor diffusion, 20 °C, 20 mg/mL protein; trimer seen by a crystallographic 3-fold axis (WT-GOL, E318S-LNT) or within the asymmetric unit (E160A/E318A-Gal).
The target in assay [12] is BiBga42A E318S mutant (Bifidobacterium longum subsp. infantis ATCC 15697). Described as above.
The target in assay [13] is BiBga42A wild-type (WT) enzyme, glycoside hydrolase family 42 β-galactosidase from Bifidobacterium longum subsp. infantis ATCC 15697 (Bifidobacterium longum subsp. infantis ATCC 15697). The assay is described as above.

`CC(=O)N[C@H]1C(O)O[C@H](CO)[C@@H](O)[C@@H]1O[C@@H]1O[C@H](CO)[C@H](O)[C@H](O)[C@H]1O` (some centres unmarked) [LNB]: the Km in assay [1] (read-out: LNB) worked out at 25 mM.

For the molecule `CC(=O)N[C@H]1[C@H](O[C@H]2[C@@H](O)[C@@H](CO)O[C@@H](O[C@H]3[C@H](O)[C@@H](O)C(O)O[C@@H]3CO)[C@@H]2O)O[C@H](CO)[C@@H](O)[C@@H]1O[C@@H]1O[C@H](CO)[C@H](O)[C@H](O)[C@H]1O` (some centres unmarked) [LNT], the Km in assay [2] (read-out: LNT) was 16 mM; in assay [3], 3 mM; in [4] (read-out: LNT) it was 7.7 mM; in assay [5], 8.4 mM; in assay [6] it was 11 mM; in assay [1] (read-out: LNT), 2.7 mM. Moreover, in assay [8], the Km was 2.6 mM. The “X-ray co-crystal structure, 2.2 Å” value in [7] is “An LNT-complexed crystal was indeed obtained for the mutant”.

For `O=[N+]([O-])c1ccc(O[C@@H]2O[C@H](CO)[C@H](O)[C@H](O)[C@H]2O)cc1` [pNP-Gal], the Km amounted to 1.4 mM in assay [9]; 1.4 mM in assay [2] (read-out: pNP-Gal); 12 mM in assay [4] (read-out: pNP-Gal); 0.94 mM in assay [10]; 0.57 mM in assay [1] (read-out: pNP-Gal).

By stoichiometry N is commonly meant the number of molecules, sites or subunits per partner or assembly. As for “BiBga42A E160A/E318A double mutant (enzyme)”, the stoichiometry N in assay [11] came to 3.

BiBga42A E318S mutant (enzyme): the stoichiometry N in assay [12] turned out to be 3.

As to “BiBga42A wild-type (WT) enzyme, glycoside hydrolase family 42 β-galactosidase from Bifidobacterium longum subsp. infantis ATCC 15697”, in assay [13], the stoichiometry N worked out at 3.
